Structures can show the parent of a compound that is named as a salt.
Test: collision cross section in nitrogen (drift tube, single-field); higher = larger gas-phase ion size
[1] = ion type: [M+H], ion source: APCI, ion mode: Positive
[2] = ion type: [M+H], ion source: ESI, ion mode: Positive
[3] = ion type: [M+Na], ion source: ESI, ion mode: Positive
[4] = ion type: [M-H], ion source: ESI, ion mode: Negative
[5] = ion source: APCI, ion mode: Positive, ion type: [M]+ (permanent cation)
[6] = ion source: ESI, ion mode: Positive, ion type: [M]+ (permanent cation)
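Note: chemical standards at 10 µM analysed by drift tube IMS-QTOF MS in about 3.95 torr nitrogen, mean of duplicate injections differing ≤1%, mass error below 10 ppm.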

Row | Compound | collision cross section in nitrogen [2] | collision cross section in nitrogen [3] | collision cross section in nitrogen [4] | other results
1 | CCOC(=O)NNc1nncc2ccccc12 [Todralazine hydrochloride] | 151.8 Å² | 158.8 Å² |  | collision cross section in nitrogen [1]: 152 Å²
2 | O=C(O)CC(C(=O)O)S(=O)(=O)O (centres undefined) [Sulfosuccinic acid] |  |  | 124.5 Å² | 
3 | C1CCC(NC2CCCCC2)CC1 [Dicyclohexylamine] | 146.9 Å² |  |  | collision cross section in nitrogen [1]: 147.6 Å²
4 | CCN(Cc1cccc(S(=O)(=O)O)c1)c1ccc(C(=C2C=CC(=[N+](CC)Cc3cccc(S(=O)(=O)O)c3)C=C2)c2ccccc2S(=O)(=O)[O-])cc1 [FD&C Blue No. 1] | 253.6 Å² |  | 257.6 Å² | 
5 | Cc1nccn1-c1ccc(Sc2cccc(C3(C(N)=O)CCOCC3)c2)cc1 | 196.8 Å² | 188.1 Å² |  | collision cross section in nitrogen [1]: 196.7 Å²
6 | C(=C(c1ccccc1)c1ccccc1)c1ccccc1 [Triphenylethylene] | 153.5 Å² |  |  | 
7 | CCCCOC(=O)c1ccccc1C(=O)OCCCC [Dibutyl 1,2-benzenedicarboxylate] |  | 182.9 Å² |  | 
8 | Oc1ccc(Nc2ccccc2)cc1 [4-Anilinophenol] |  |  | 147.4 Å² | collision cross section in nitrogen (ion type: [M+], ion source: APCI, ion mode: Positive): 140.4 Å²
9 | CC(C)N(C(=O)CCl)c1ccccc1 [Propachlor] | 143.2 Å² | 161.5 Å² |  | collision cross section in nitrogen [1]: 143.4 Å²
10 | O=[N+]([O-])c1cc[n+]([O-])cc1 [4-Nitropyridine-1-oxide] |  |  | 119.2 Å² | 
11 | N#Cc1ccc(O)cc1 [4-Hydroxybenzonitrile] |  |  | 118.1 Å² | 
12 | Cc1nc(-c2ccc3c(c2)CCN(CCC2CCC(NC(=O)/C=C/c4ccc(F)cc4)CC2)CC3)no1 (centres undefined) | 224.8 Å² | 236.2 Å² | 226.8 Å² | collision cross section in nitrogen [1]: 225.5 Å²
13 | CCCCCCCCCCCC(=O)OC(C)C [Isopropyl Laurate] |  |  | 165.3 Å² | 
14 | Nc1ccc(O)c(C(=O)O)c1 [5-Aminosalicylic acid] |  |  | 127.8 Å² | 
15 | N[C@@H](Cc1cc(I)c(Oc2ccc(O)c(I)c2)c(I)c1)C(=O)O [3,5,3'-Triiodothyronine] | 205.3 Å² |  | 198.1 Å² | 
16 | CC1(C)CC(N)CC(C)(CN)C1 (centres undefined) [Isophorone diamine] | 142.3 Å² |  |  | 
17 | COc1ccc2c(c1)c(CC(=O)O)c(C)n2C(=O)c1ccc(Cl)cc1 [Indomethacin] | 181.2 Å² | 191.6 Å² |  | 
18 | CCC(C)(C)C(=O)OC1=C(c2ccc(Cl)cc2Cl)C(=O)OC12CCCCC2 [Spirodiclofen] |  | 209.5 Å² |  | 
19 | CC(C)OC(=O)Nc1cccc(Cl)c1 [Chlorpropham] |  |  | 148.4 Å² | 
20 | CC(C)(CO)[C@@H](O)C(=O)NCCC(=O)O [Sodium pantothenate] |  | 151.2 Å² | 147.1 Å² | 
21 | CC1(c2ccc(Oc3ccccc3)cc2)OC(=O)N(Nc2ccccc2)C1=O (centres undefined) [Famoxadone] |  | 210.6 Å² | 195.7 Å² | 
22 | Cc1cc(Cc2cc(C)cc(C(C)(C)C)c2O)c(O)c(C(C)(C)C)c1 [2,2'-Methylenebis(4-methyl-6-tert-butylphenol)] |  |  | 195.4 Å² | 

Row | Compound | collision cross section in nitrogen [2] | collision cross section in nitrogen [3] | collision cross section in nitrogen [4] | other results
23 | O=C1CCCCCN1SSN1CCCCCC1=O [1,1'-Disulfanediyldiazepan-2-one] |  | 168.7 Å² |  | 
24 | CC1=NN(c2cccc(S(=O)(=O)O)c2)C(=O)C1 | 161.7 Å² | 161.9 Å² | 156.5 Å² | 
25 | CCCCNC(=O)NCCCC [N,N'-Dibutylurea] | 146 Å² | 164.2 Å² |  | collision cross section in nitrogen [1]: 146.3 Å²
26 | CCNc1ccc(C(=C2C=CC(=[N+](CC)CC)C=C2)c2ccc(N(CC)CC)cc2)c2ccccc12 [Basic Blue 7] |  |  |  | collision cross section in nitrogen [5]: 241.9 Å²; collision cross section in nitrogen [6]: 240.6 Å²
27 | O=C(O)COc1ccc2ccccc2c1 [2-Naphthoxyacetic acid] |  |  | 151.2 Å² | 
28 | O=S(=O)(O)C(F)(F)C(F)(F)C(F)(F)C(F)(F)C(F)(F)C(F)(F)F [Potassium perfluorohexanesulfonate] |  |  | 150.9 Å² | 
29 | CN(C)C(=O)Nc1cccc(C(F)(F)F)c1 [Fluometuron] | 150.1 Å² | 155 Å² | 146.2 Å² | collision cross section in nitrogen [1]: 150.5 Å²
30 | CCCOC(=O)c1c(Cl)c(Cl)c(Cl)c(Cl)c1C(=O)OCCC [Dipropyl 3,4,5,6-tetrachlorobenzene-1,2-dicarboxylate] |  | 191.8 Å² |  | 
31 | O=c1c(O)c(-c2ccc(O)cc2O)oc2cc(O)cc(O)c12 [Morin hydrate] |  |  | 164.1 Å² | 
32 | FC(F)(F)c1ccc(Cl)cc1 [1-Chloro-4-(trifluoromethyl)benzene] | 142.6 Å² |  |  | 
33 | CCC(C)OC(=O)c1ccc(O)cc1 (centres undefined) [sec-Butylparaben] |  |  | 148.4 Å² | 
34 | CCC(C)(NC(=O)c1cc(Cl)c(C)c(Cl)c1)C(=O)CCl (centres undefined) [Zoxamide] | 175.9 Å² | 188 Å² |  | 
35 | CCCCNC(=O)NS(=O)(=O)c1ccc(N)cc1 [Carbutamide] |  | 175.6 Å² | 165 Å² | 
36 | CCCOC(=O)c1ccccc1C(=O)OCCC [Di-n-propylphthalate] |  | 171.5 Å² |  | 
37 | C=C(C)C(=O)Nc1ccc(Cl)c(Cl)c1 [Chloranocryl] |  |  | 145.8 Å² | 
38 | CC(C)(C)NC(=O)[C@@H]1CN(Cc2cccnc2)CCN1C[C@@H](O)C[C@@H](Cc1ccccc1)C(=O)N[C@H]1c2ccccc2C[C@H]1O [Indinavir sulfate] | 262.3 Å² | 246.1 Å² |  | collision cross section in nitrogen [1]: 262.9 Å²
39 | CCCCCCCCOC(=O)c1ccc(O)cc1 [Octylparaben] |  |  | 169.1 Å² | 
40 | O=S(=O)(O)c1cc(Cl)c(Cl)cc1Cl [2,4,5-Trichlorobenzenesulfonic acid] |  |  | 142.8 Å² | 
41 | Nc1ccc([As](=O)(O)O)cc1 [(4-Aminophenyl)arsonic acid] | 130.9 Å² | 144.9 Å² | 139 Å² | 
42 | CNC(=O)Oc1c(C(C)(C)C)cc(C)cc1C(C)(C)C [Terbucarb] |  | 176.8 Å² |  | 
43 | COCCc1ccc(OCC(O)CNC(C)C)cc1 (centres undefined) [Metoprolol] | 172.1 Å² | 164 Å² |  | collision cross section in nitrogen [1]: 171.7 Å²
44 | Cc1ccc2c(c1)C(=O)c1ccccc1C2=O [2-Methylanthraquinone] |  |  | 145.3 Å² | 

Row | Compound | collision cross section in nitrogen [2] | collision cross section in nitrogen [3] | collision cross section in nitrogen [4] | other results
45 | O=S(=O)(O)c1ccc(N=Nc2cc(S(=O)(=O)O)c3ccccc3c2O)c2ccccc12 [Azorubine] |  |  | 211.8 Å² | 
46 | NC(=O)N1C(=O)C(C(=O)c2cc(Cl)cs2)c2cc(F)c(Cl)cc21 (centres undefined) |  |  | 173.7 Å² | 
47 | N#CCCOCCOCCC#N [3,3'-(Ethylenedioxy)dipropiononitrile] |  | 143 Å² |  | 
48 | CCc1cccc(C)c1N(C(=O)C(=O)O)C(C)COC (centres undefined) [Metolachlor OA] |  |  | 165.9 Å² | 
49 | CC1(C)CCC[C@]2(C)[C@H]3CC(=O)O[C@]3(C)CC[C@@H]12 [(3aR)-(+)-Sclareolide] |  | 181.5 Å² |  | 
50 | O=P(O)(Oc1ccccc1)Oc1ccccc1 [Diphenyl phosphate] | 156.5 Å² |  | 153.6 Å² | 
51 | CCc1nc(N)nc(N)c1-c1ccc(Cl)cc1 [Pyrimethamine] | 159.4 Å² |  |  | collision cross section in nitrogen [1]: 158.8 Å²
52 | CCCC(C)(COC(N)=O)COC(=O)NC(C)C (centres undefined) [Carisoprodol] |  | 172.2 Å² |  | 
53 | O=S(=O)(O)NC1CCCCC1 [Cyclamic acid] |  |  | 139.6 Å² | 
54 | COc1c2ccoc2cc2oc(=O)ccc12 [5-Methoxypsoralen] | 140.3 Å² |  |  | collision cross section in nitrogen [1]: 139.3 Å²
55 | O=C(NO)c1ccccc1O [Salicylhydroxamic acid] |  |  | 124.5 Å² | 
56 | CS(=O)(=O)c1ccc([C@@H](CC2CCCC2)C(=O)Nc2cnccn2)cc1Cl | 205.5 Å² | 207.9 Å² | 202.7 Å² | 
57 | N#Cc1ccc(C2CCCc3cncn32)cc1 (centres undefined) [Fadrozole] | 157.3 Å² |  |  | 
58 | Cc1occc(=O)c1O [Maltol] |  |  |  | collision cross section in nitrogen [1]: 119.5 Å²
59 | CCCCCCCC[N+](C)(CCCCCCCC)CCCCCCCC [Methyltrioctylammonium chloride] |  |  |  | collision cross section in nitrogen [5]: 222.2 Å²; collision cross section in nitrogen [6]: 221.8 Å²
60 | CCn1c2ccccc2c2cc([N+](=O)[O-])ccc21 [9-Ethyl-3-nitro-9H-carbazole] | 152 Å² |  |  | 
61 | Oc1ccccc1O [1,2-Benzenediol] |  |  | 116.1 Å² | 
62 | CCCCCCCCCOS(=O)(=O)O [Sodium nonyl sulfate] |  |  | 154.5 Å² | 
63 | CC=Cc1ccc(OCc2ccccc2)c(OC)c1 [1-Benzyloxy-2-methoxy-4-(1-propenyl)benzene] |  | 172.2 Å² |  | 
64 | COc1cccc(C(=O)NN(C(=O)c2cc(C)cc(C)c2)C(C)(C)C)c1C [Methoxyfenozide] |  | 201.9 Å² | 194.2 Å² | 
65 | CCNS(=O)(=O)C(F)(F)C(F)(F)C(F)(F)C(F)(F)C(F)(F)C(F)(F)C(F)(F)C(F)(F)F [N-Ethylperfluorooctane sulfonamide] |  |  | 180.4 Å² | 
